Several values for one entry are separate records, joined by “and”; a condition that tells them apart may be missing. Equal values may be shown once.

5 substances from US20250250559A1, “METHOD TO ANALYZE AND OPTIMIZE GENE EDITING MODULES AND DELIVERY APPROACHES” (Hoffmann-La Roche Inc., priority 2016, published 2025) can be followed below.

What all share (type): cell-based, human
For data set [1], the system named is DPH1 gene. Put plainly: DT + PM double resistant colony count after DPH1 gene editing (integration with inactivation). As to conditions: DPH1 (gRNA length), TF eff. = 31%; for # of DT + PM resistant colonies (40,000 seeded cells): MCF7, individual samples A-D.
Procedure: MCF7 cells (Brooks, et al. 1973) were originally obtained from ATCC (subsequently propagated in an in-house cell bank) and maintained in RPMI 1641 medium supplemented with 10% FCS, 2 mM L-Glutamine and penicillin/streptomycin at 37° C. and 85% humidity. For transfection of plasmids harboring gene-editing modules, 3,000,000 cells were seeded in a 10 cm diameter culture dish and cultivated at 37° C. and humidified 5% CO2. 24 h after seeding, cells were transfected with 20 μg total DNA using JetPEI (Polyplus) according to the manufacturer's protocol but with an N/P ratio of 6:1. Transfection efficiency was determined after 24 h by flow cytometry (FACS Calibur, BD biosciences) of cells that were transfected with a modified eGFP expression plasmid (Zhang, et al. 1996).
CRISPR/Cas module for targeted integration contains a puromycin (PM) resistance gene expression cassette without promoter to avoid transient expression. Thus, detection of integration of recombinant sequences into the genome was detected by determining sensitivity of cells towards PM. A concentration of 500 ng/μL PM (which quantitatively eliminates wildtype MCF7 cells) was applied to select MCF7 cells with stably integrated expression cassettes. PM-resistant colonies selected with the same procedure as described above for the DT selection and visualized and quantified (between 12 and 14 days after start of selection) in the same manner as described above for toxin resistant colonies. Number of PM resistant colonies obtained with non-target guide sequences (scrambled gRNA, FIG. 1) reflect the nonspecific integration background. Increase in colonies (above nonspecific background) obtained with target-gene gRNAs which are PM-resistant but toxin sensitive reflect integration into just one target allele, leaving the other dph1 or dph2 allele unaffected. PM resistant colonies that are also DT resistant have the expression cassette integrated into at least target allele and the other allele either inactivated or inactivated accompanied by yet another integration event.
Data set [2] relates to DPH1 gene. The data set is described as follows: PM resistant colony count after DPH1 gene editing (PAC cassette integration). As to conditions: for # of PM resistant colonies (40,000 seeded cells) / # of PM resistant colonies (40,000 seeded cells) (unheaded second sub-column: mean): DPH1 (gRNA length), TF eff. = 31%; for # of PM resistant colonies (40,000 seeded cells): MCF7, individual samples A-D; for integration efficacy in dependence on gRNA length: PMr colonies. As to the method: (§1) MCF7 cells (Brooks, et al. 1973) were originally obtained from ATCC (subsequently propagated in an in-house cell bank) and maintained in RPMI […] medium supplemented with 10% FCS, 2 mM L-Glutamine and penicillin/streptomycin at 37° C. and 85% humidity. For transfection of plasmids harboring gene-editing modules, 3,000,000 cells were seeded in a 10 cm diameter culture dish and cultivated at 37° C. and humidified 5% CO2. 24 h after seeding, cells were transfected with 20 μg total DNA using JetPEI (Polyplus) according to the manufacturer's protocol but with an N/P ratio of 6:1. Transfection efficiency was determined after 24 h by flow cytometry (FACS Calibur, BD biosciences) of cells that were transfected with a modified eGFP expression plasmid (Zhang, et al. 1996).
(§2) Plasmids encoding CRISPR/Cas9 gene-editing entities (i.e. knock-out and integration systems) against Dph1 (gRNA target sequence: […] (SEQ ID NO: 01) derived from RefSeq: NM_001383) and Dph2 (gRNA target sequence: […] (SEQ ID NO: 02) derived from RefSeq: NM_001039589, NM_001384), and scrambled control (gRNA sequence: […] (SEQ ID NO: 03)) were obtained from OriGene. This system comprises one plasmid expressing a ˜100 nt gRNA under control of a U6 promoter as well as Cas9 nuclease under control of a CMV promoter and a Donor plasmid with a promoter-less GFP/PM expression cassette flanked by homologous arms to the target gene (Dph1 or Dph2). Additional Dph1 gRNA sequence variants of different sizes (OriGene) […]
MCF7 cells which have all chromosomal copies of DPH1 or DPH2 inactivated are resistant to diphtheria toxin (Stahl, et al. 2015). Thus, occurrence and frequency of toxin resistant cells/colonies upon CRISPR/Cas inflicted gene inactivation provides a measure for efficiency of inactivation of all gene copies. Therefore, MCF/cells were transfected as described in Example 1 with (i) a GFP expression plasmid as transfection control, (ii) the CRISPR/Cas9 Dph1 or Dph2 knock-out/integration system and (iii) knock-out/integration entities containing a scrambled gRNA to determine Cas9 independent integration frequencies. After determination of transfection efficiency, cells were seeded in 6-well plates. […] RPMI medium was exchanged by RPMI medium containing DT or PM or both toxins 3 days after cell seeding. Exchange of medium was repeated every 2-3 days until all dead cells were removed from the plates and actively growing colonies could be detected via microscopic inspection. Thereafter (between day 12 and day 14 after start of toxin exposure), cells were washed 3 times with PBS and subsequently stained with ice cold methylene blue (0.2% in 50% EtOH). Methylene blue solution was subsequently removed and the plates were carefully washed under running water. Finally, cell colonies were counted under the microscope with a 5 mm grid foil.
CRISPR/Cas module for targeted integration contains a puromycin (PM) resistance gene expression cassette without promoter to avoid transient expression. Thus, detection of integration of recombinant sequences into the genome was detected by determining sensitivity of cells towards PM. A concentration of […] PM (which quantitatively eliminates wildtype MCF7 cells) was applied to select MCF7 cells with stably integrated expression cassettes. PM-resistant colonies selected with the same procedure as described above for the DT selection and visualized and quantified (between 12 and 14 days after start of selection) in the same manner as described above for toxin resistant colonies. Number of PM resistant colonies obtained with non-target guide sequences (scrambled gRNA, FIG. 1) reflect the nonspecific integration background. Increase in colonies (above nonspecific background) obtained with target-gene gRNAs which are PM-resistant but toxin sensitive reflect integration into just one target allele, leaving the other dph1 or dph2 allele unaffected. […]

For data set [3], the system named is DPH1 gene. Put plainly: DT resistant colony count after DPH1 gene editing (homozygous gene inactivation). As to conditions: for # of DT resistant colonies (20,000 seeded cells) / # of DT resistant colonies (20,000 seeded cells) (unheaded second sub-column: mean): DPH1 (gRNA length), TF eff. = 31%; for # of DT resistant colonies (20,000 seeded cells): MCF7, individual samples A-D. As to the method:
as §1, §2
MCF7 cells which have all chromosomal copies of DPH1 or DPH2 inactivated are resistant to diphtheria toxin (Stahl, et al. 2015). Thus, occurrence and frequency of toxin resistant cells/colonies upon CRISPR/Cas inflicted gene inactivation provides a measure for efficiency of inactivation of all gene copies. Therefore, MCF/cells were transfected as described in Example 1 with (i) a GFP expression plasmid as transfection control, (ii) the CRISPR/Cas9 Dph1 or Dph2 knock-out/integration system and (iii) knock-out/integration entities containing a scrambled gRNA to determine Cas9 independent integration frequencies. After determination of transfection efficiency, cells were seeded in 6-well plates. For quantification of homozygous knock-out events by DT 20000 cells were seeded and for quantification of integration events by PM or both events 40000 cells were seeded. RPMI medium was exchanged by RPMI medium containing DT or PM or both toxins 3 days after cell seeding. Exchange of medium was repeated every 2-3 days until all dead cells were removed from the plates and actively growing colonies could be detected via microscopic inspection. Thereafter (between day 12 and day 14 after start of toxin exposure), cells were washed 3 times with PBS and subsequently stained with ice cold methylene blue (0.2% in 50% EtOH). Methylene blue solution was subsequently removed and the plates were carefully washed under running water. Finally, cell colonies were counted under the microscope with a 5 mm grid foil.
MCF7 cells which have all chromosomal copies of DPH1 inactivated are DT resistant. Thus, occurrence and frequency of DTr colonies upon ZFN inflicted gene inactivation and/or cassette integration provides a measure for efficacy of inactivation of all gene copies. The ZFN recognition sequence ([…], cleavage site, SEQ ID NO: 10) are derived from NM_001383.3 (DPH1-wt) and were obtained from Sigma Aldrich. A PAC integration cassette for this position was obtained from OriGene. MCF7 cells were transfected as described above with (i) a GFP expression plasmid, (ii) the plasmid encoding DPH1-targeting ZFN and (iii) the DPH1-targeting PAC-integration cassette. After determination of transfection efficiency, cells were seeded in 6-well plates. For quantification of homozygous knock-out events (DTr) 20,000 cells were seeded, 40,000 cells for quantification of integration events (PMr) or double resistances. […]

The mark [4] stands for this setting: listed as 22 mer Dph1 CRISPR Cas9 gRNA.
Setting [5] is: listed as 26 mer Dph1 CRISPR Cas9 gRNA.
[6] abbreviates: listed as 26 mer Dph1 CRISPR/Cas9 gRNA.
The mark [7] stands for this setting: listed as 16 mer Dph1 CRISPR Cas9 gRNA.
Where [8] appears, read: listed as 18 mer Dph1 CRISPR Cas9 gRNA.

As to “22 mer SpCas9 Dph1 gRNA: Dph1 gRNA sequence variant AGCAGGGCGGCCGAGACGGCCC with SpCas9 (chemistry not given here)”, in data set [1], the “# of DT + PM resistant colonies (40,000 seeded cells)” value is 6 and 5 (2×) and 4; the “# of DT + PM resistant colonies (40,000 seeded cells) (unheaded second sub-column: mean)” value was found to be 5. Moreover, in data set [1] (setting [4]), the “# of DT + PM resistant colonies (40,000 seeded cells)” value was 6 and 5 (2×) and 4. In data set [2], the “# of PM resistant colonies (40,000 seeded cells)” value is 14 and 12 and 11 and 15; the “# of PM resistant colonies (40,000 seeded cells) (unheaded second sub-column: mean)” value is listed as 13; the “integration efficacy in dependence on gRNA length” value (“integration efficacy in dependence” for short) was “Targeted integration clearly above background was observed”. Further, in data set [2] (setting [4]), the “# of PM resistant colonies (40,000 seeded cells)” value is 14 and 12 and 11 and 15. In data set [3], the “# of DT resistant colonies (20,000 seeded cells)” value was 278 and 292 and 297 and 267; the “# of DT resistant colonies (20,000 seeded cells) (unheaded second sub-column: mean)” value was 284. In data set [3] (setting [4]), the “# of DT resistant colonies (20,000 seeded cells)” value was 278 and 292 and 297 and 267.

“14 mer SpCa9 Dph1 gRNA: Dph1 gRNA sequence variant GGCCGAGACGGCCC with SpCas9 (listed as DNA, chemistry not given here)”: in data set [1], the “# of DT + PM resistant colonies (40,000 seeded cells)” value worked out at 0 and the “# of DT + PM resistant colonies (40,000 seeded cells) (unheaded second sub-column: mean)” value is 0. Besides, in data set [2], the “# of PM resistant colonies (40,000 seeded cells)” value is 6 and 10 and 8 and 9; the “# of PM resistant colonies (40,000 seeded cells) (unheaded second sub-column: mean)” value was found to be 8; the “integration efficacy in dependence” value is on record as “not exceeding scrambled control background levels”. The “# of PM resistant colonies (40,000 seeded cells)” value in data set [2] (listed as 14 mer Dph1 CRISPR Cas9 gRNA) was 6 and 10 and 8 and 9. Also, in data set [3], the “# of DT resistant colonies (20,000 seeded cells)” value came to 0 and the “# of DT resistant colonies (20,000 seeded cells) (unheaded second sub-column: mean)” value is 0. In addition, the “DPH1 inactivation efficacy in dependence on gRNA length” value in data set [3] (DTr colonies) was “below detection levels”.

As for “26 mer SpCas9 Dph1 gRNA: Dph1 gRNA sequence variant GCGGAGCAGGGCGGCCGAGACGGCCC with SpCas9 (chemistry not given here)”, the “# of DT + PM resistant colonies (40,000 seeded cells)” value in data set [1] is 0 (2×) and 1 (2×); in data set [1] (setting [5]), 0 (2×) and 1; in data set [1] (setting [6]), 1. Moreover, the “# of DT + PM resistant colonies (40,000 seeded cells) (unheaded second sub-column: mean)” value in data set [1] is listed as 1. Besides, the “# of PM resistant colonies (40,000 seeded cells)” value is 12 (2×) and 11 and 9 in data set [2]; 12 (2×) and 11 in data set [2] (setting [5]); 9 in data set [2] (setting [6]). The “# of PM resistant colonies (40,000 seeded cells) (unheaded second sub-column: mean)” value in data set [2] stood at 11. For the same substance, the “integration efficacy in dependence” value in data set [2] was “Targeted integration clearly above background was observed”. The “# of DT resistant colonies (20,000 seeded cells)” value in data set [3] is 161 and 155 and 176 and 187; in data set [3] (setting [5]), 161 and 155 and 176; in data set [3] (setting [6]), 187. Besides, the “# of DT resistant colonies (20,000 seeded cells) (unheaded second sub-column: mean)” value in data set [3] is given as 170.

Take “16 mer SpCas9 Dph1 gRNA: Dph1 gRNA sequence variant GCGGCCGAGACGGCCC with SpCas9 (chemistry not given here)”: in data set [1], the “# of DT + PM resistant colonies (40,000 seeded cells)” value was 7 and 9 (2×) and 10; the “# of DT + PM resistant colonies (40,000 seeded cells) (unheaded second sub-column: mean)” value is on record as 8. Also, the “# of DT + PM resistant colonies (40,000 seeded cells)” value in data set [1] (setting [7]) is 7 and 9 (2×) and 10. In addition, in data set [2], the “# of PM resistant colonies (40,000 seeded cells)” value was 21 and 26 (2×) and 25; the “# of PM resistant colonies (40,000 seeded cells) (unheaded second sub-column: mean)” value came out at 25; the “integration efficacy in dependence” value was “Targeted integration clearly above background was observed”. Besides, in data set [2] (setting [7]), the “# of PM resistant colonies (40,000 seeded cells)” value was 21 and 26 (2×) and 25. In data set [3], the “# of DT resistant colonies (20,000 seeded cells)” value is 275 and 298 and 292 and 271; the “# of DT resistant colonies (20,000 seeded cells) (unheaded second sub-column: mean)” value worked out at 284. In data set [3] (setting [7]), the “# of DT resistant colonies (20,000 seeded cells)” value was 275 and 298 and 292 and 271.

Consider “18 mer SpCas9 Dph1 gRNA: Dph1 gRNA sequence variant GGGCGGCCGAGACGGCCC with SpCas9 (chemistry not given here)”, for which, in data set [1], the “# of DT + PM resistant colonies (40,000 seeded cells)” value was 10 and 12 and 7 and 11; the “# of DT + PM resistant colonies (40,000 seeded cells) (unheaded second sub-column: mean)” value worked out at 10. For the same substance, the “# of DT + PM resistant colonies (40,000 seeded cells)” value in data set [1] (setting [8]) was 10 and 12 and 7 and 11. Moreover, in data set [2], the “# of PM resistant colonies (40,000 seeded cells)” value was 19 and 25 and 27 and 22; the “# of PM resistant colonies (40,000 seeded cells) (unheaded second sub-column: mean)” value is listed as 23; the “integration efficacy in dependence” value is listed as “Targeted integration clearly above background was observed”. Moreover, in data set [2] (setting [8]), the “# of PM resistant colonies (40,000 seeded cells)” value was 19 and 25 and 27 and 22. Moreover, in data set [3], the “# of DT resistant colonies (20,000 seeded cells)” value was 284 and 299 and 321 and 324; the “# of DT resistant colonies (20,000 seeded cells) (unheaded second sub-column: mean)” value was found to be 307. Also, the “# of DT resistant colonies (20,000 seeded cells)” value in data set [3] (setting [8]) was 284 and 299 and 321 and 324.
